Assay [1] deals with T1, pseudo-kinase domain (JH2, amino-acids 536-812) of human V617F mutant JAK2 (Homo sapiens, UniProt O60674, F794H/V617F/W659A/W777A).
T1 construct: pseudo-kinase domain (JH2, amino-acids 536-812 with 3 surface mutations W659A, W777A, F794H); His (C); purchased BPS Bioscience 79498; host or cells: baculovirus expression system
The assay can be described thus: JAK2 LanthaScreen JH2-V617F Binding Assay. Particulars: JAK2 JH2-V617F 0.26 nM, 50 nM tracer, 1 hour at 25° C.; read-out: JH2 BIND V617F. The method, then:
Example C. JAK2 LanthaScreen JH2-V617F Binding Assay
JAK2 JH2-V617F binding assay utilizes pseudo-kinase domain (JH2, amino-acids 536-812 with 3 surface mutations W659A, W777A, F794H) of human V617F mutant JAK2 expressed as C-terminal His-Avi-tagged, biotinylated protein in a baculovirus expression system (BPS Bioscience, Catalog #79498). The assay was conducted in black 384-well polystyrene plates in a final reaction volume of 20 μL. JAK2 JH2-V617F (0.26 nM) was incubated with compounds (100 nL serially diluted in DMSO) in the presence of 50 nM Fluorescent JAK2-JH2 Tracer (MedChem Express Catalog #HY-102055) and 0.25 nM Streptavidin-Tb cryptate (Cisbio Part #610SATLB) in assay buffer (50 mM Tris, pH=7.5, 10 mM MgCl2, 0.01% Brij-35, 0.1% BSA, 1 mM EGTA, 5% Glycerol and 5 mM DTT). Non-specific binding was accessed in the presence of 2 mM ATP. After incubation for 1 hour at 25° C., LanthaScreen signals were read on a PHERAstar FS plate reader (BMG LABTECH). Data was analyzed with IDBS XLfit and GraphPad Prism 5.0 software using a four parameter dose response curve to determine IC50 for each compound.
Background: TR-FRET usually uses a lanthanide donor and a delayed reading to cut background.

In assay [2] the target is catalytic domain (JH1, amino acids 808-1132) of human JAK2 (Homo sapiens, UniProt O60674). The assay can be described thus: JAK2 HTRF Enzyme Activity Assay. The assay is classed as biochemical. Particulars: ATP 30 µM, 60 minutes at 25° C.; read-out: V617F ENZ 30 UM.
catalytic domain (JH1, amino acids 808-1132) of human JAK2, sequence (O60674 808-1132 limits assumed): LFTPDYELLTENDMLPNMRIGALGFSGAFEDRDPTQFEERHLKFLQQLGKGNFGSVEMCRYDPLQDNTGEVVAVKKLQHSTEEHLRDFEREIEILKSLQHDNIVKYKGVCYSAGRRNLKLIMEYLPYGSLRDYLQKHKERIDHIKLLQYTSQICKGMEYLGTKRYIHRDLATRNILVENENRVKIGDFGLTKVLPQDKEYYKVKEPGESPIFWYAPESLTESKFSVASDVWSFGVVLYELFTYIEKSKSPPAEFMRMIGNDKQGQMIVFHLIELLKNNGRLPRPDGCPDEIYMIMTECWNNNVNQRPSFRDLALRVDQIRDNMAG

Structures are written as SMILES. A value given as a limit tells only on which side of the number the result lay.

T1 sequence (O60674 536-812 V617F/W659A/W777A/F794H): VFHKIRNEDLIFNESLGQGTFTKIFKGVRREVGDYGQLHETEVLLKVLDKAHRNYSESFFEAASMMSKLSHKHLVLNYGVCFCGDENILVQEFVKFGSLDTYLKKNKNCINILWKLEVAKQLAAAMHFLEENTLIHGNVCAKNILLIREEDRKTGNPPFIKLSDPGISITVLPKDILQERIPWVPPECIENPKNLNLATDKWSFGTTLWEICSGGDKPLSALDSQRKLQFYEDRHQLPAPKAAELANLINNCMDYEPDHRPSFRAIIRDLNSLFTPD

In the case of `[2H]C([2H])([2H])n1c(=O)n([C@@H]2CC[C@](C)(NC(C)=O)C2)c2cc(Nc3cc(C(C)(C)O)cc(-c4cnc(OC(C)C)s4)n3)ncc21` [Example 151, N-((1S,3R)-3-(6-((4-(2-hydroxypropan-2-yl)-6-(2-isopropoxythiazol-5-yl)pyridin-2-yl)amino)-3-(methyl-d3)-2-oxo-2,3-dihydro-1H-imidazo[4,5-c]pyridin-1-yl)-1-methylcyclopentyl)acetamide], the IC50 in assay [1] is not above 10 nM; in assay [2], more than 1000 nM.

As for `[2H]C1(NC(=O)OC)CC[C@@H](n2c(=O)n(C([2H])([2H])[2H])c3cnc(Nc4cc(C(C)(C)O)c5ccn(-c6cnn(C(F)(F)F)c6)c5n4)cc32)C1` (stereo partly drawn) [Example 131, Methyl ((3R)-3-(6-((4-(2-hydroxypropan-2-yl)-1-(1-(trifluoromethyl)-1H-pyrazol-4-yl)-1H-pyrrolo[2,3-b]pyridin-6-yl)amino)-3-(methyl-d3)-2-oxo-2,3-dihydro-1H-imidazo[4,5-c]pyridin-1-yl)cyclopentyl-1-d)carbamate], the IC50 in assay [1] was not above 10 nM; in assay [2], more than 1000 nM.

Consider `[2H]C([2H])([2H])NC(=O)C12CCC(n3c(=O)n(C([2H])([2H])[2H])c4cnc(Nc5cc(C(C)(C)O)cc(-c6ncc(C(F)(F)F)s6)n5)cc43)(CC1)CC2` [Example 137, 4-(6-((4-(2-Hydroxypropan-2-yl)-6-(5-(trifluoromethyl)thiazol-2-yl)pyridin-2-yl)amino)-3-(methyl-d3)-2-oxo-2,3-dihydro-1H-imidazo[4,5-c]pyridin-1-yl)-N-(methyl-d3)bicyclo[2.2.2]octane-1-carboxamide], for which the values for the IC50 in assay [1] and in assay [2] were not above 10 nM and more than 1000 nM, respectively.

On to `[2H]C([2H])([2H])n1c(=O)n([C@@H]2CC[C@](C)(NC(=O)C3CC3)C2)c2cc(Nc3ccc4nn([C@H]5C[C@@H](O)C5)c(-c5cnn(C(F)(F)F)c5)c4n3)ncc21` [Example 121, N-((1S,3R)-3-(6-((2-((1s,3s)-3-Hydroxycyclobutyl)-3-(1-(trifluoromethyl)-1H-pyrazol-4-yl)-2H-pyrazolo[4,3-b]pyridin-5-yl)amino)-3-(methyl-d3)-2-oxo-2,3-dihydro-1H-imidazo[4,5-c]pyridin-1-yl)-1-methylcyclopentyl)cyclopropanecarboxamide], for which the IC50 in assay [1] is not above 10 nM; in assay [2] it was more than 1000 nM.

With `[2H]C([2H])([2H])n1c(=O)n(C23CCC(C(N)=O)(CC2)C3)c2cc(Nc3cc(C(C)(C)O)cc(-c4ncc(C(F)(F)F)s4)n3)ncc21` [Example 141, 4-(6-((4-(2-Hydroxypropan-2-yl)-6-(5-(trifluoromethyl)thiazol-2-yl)pyridin-2-yl)amino)-3-(methyl-d3)-2-oxo-2,3-dihydro-1H-imidazo[4,5-c]pyridin-1-yl)bicyclo[2.2.1]heptane-1-carboxamide], the IC50 in assay [1] was not above 10 nM; in assay [2], more than 1000 nM.

Turning to `[2H]C([2H])([2H])n1c(=O)n([C@@H]2CC[C@](C)(NC(=O)OC)C2)c2cc(Nc3ccc4c(n3)c(-c3cnn(C(F)(F)F)c3)nn4CC(C)(C)O)ncc21` [Example 128, Methyl ((1S,3R)-3-(6-((1-(2-hydroxy-2-methylpropyl)-3-(1-(trifluoromethyl)-1H-pyrazol-4-yl)-1H-pyrazolo[4,3-b]pyridin-5-yl)amino)-3-(methyl-d3)-2-oxo-2,3-dihydro-1H-imidazo[4,5-c]pyridin-1-yl)-1-methylcyclopentyl)carbamate], the IC50 in assay [1] was not above 10 nM; in assay [2] it was more than 1000 nM.

Regarding `[2H]C([2H])([2H])n1c(=O)n([C@@H]2CC[C@]([2H])(NC(=O)OC)C2)c2cc(Nc3cc(C4CCOCC4)cc(-c4ncc(C(C)(C)O)s4)n3)ncc21` [Example 163, Methyl ((1S,3R)-3-(6-((6-(5-(2-hydroxypropan-2-yl)thiazol-2-yl)-4-(tetrahydro-2H-pyran-4-yl)pyridin-2-yl)amino)-3-(methyl-d3)-2-oxo-2,3-dihydro-1H-imidazo[4,5-c]pyridin-1-yl)cyclopentyl-1-d)carbamate], the IC50 in assay [1] was not above 10 nM; in assay [2], 500 to 1000 nM.

`[2H]C([2H])([2H])n1c(=O)n([C@@H]2CC[C@@]([2H])(NC(=O)OC)C2)c2cc(Nc3cc(-c4cccnc4C(F)(F)F)cc(-c4ncc(C(C)(C)O)s4)n3)ncc21` [Example 167, Methyl ((1R,3R)-3-(6-((6′-(5-(2-hydroxypropan-2-yl)thiazol-2-yl)-2-(trifluoromethyl)-[3,4′-bipyridin]-2′-yl)amino)-3-(methyl-d3)-2-oxo-2,3-dihydro-1H-imidazo[4,5-c]pyridin-1-yl)cyclopentyl-1-d)carbamate]: the IC50 was not above 10 nM in assay [1] and more than 1000 nM in assay [2].

In the case of `[2H]C1(NC(=O)OC)CC[C@@H](n2c(=O)n(C([2H])([2H])[2H])c3cnc(Nc4ccc5c(n4)c(-c4cnn(C(F)(F)F)c4)nn5C4CCOCC4)cc32)C1` (stereo partly drawn) [Example 132, Methyl ((3R)-3-(3-(methyl-d3)-2-oxo-6-((1-(tetrahydro-2H-pyran-4-yl)-3-(1-(trifluoromethyl)-1H-pyrazol-4-yl)-1H-pyrazolo[4,3-b]pyridin-5-yl)amino)-2,3-dihydro-1H-imidazo[4,5-c]pyridin-1-yl)cyclopentyl-1-d)carbamate], the IC50 in assay [1] was not above 10 nM; in assay [2], more than 1000 nM.

As to `[2H]C([2H])([2H])n1c(=O)n(C23CCC(NC(C)=O)(CC2)C3)c2cc(Nc3cc(C(C)(C)O)cc(-c4ncc(C(F)(F)F)s4)n3)ncc21` [Example 142, N-(4-(6-((4-(2-Hydroxypropan-2-yl)-6-(5-(trifluoromethyl)thiazol-2-yl)pyridin-2-yl)amino)-3-(methyl-d3)-2-oxo-2,3-dihydro-1H-imidazo[4,5-c]pyridin-1-yl)bicyclo[2.2.1]heptan-1-yl)acetamide], the IC50 in assay [1] was not above 10 nM; in assay [2] it was more than 1000 nM.

Turning to `[2H]C([2H])([2H])n1c(=O)n([C@@H]2CC[C@](C)(NC(C)=O)C2)c2cc(Nc3cc(C(C)(C)O)cc(-c4cnc(OC)s4)n3)ncc21` [Example 152, N-((1S,3R)-3-(6-((4-(2-Hydroxypropan-2-yl)-6-(2-methoxythiazol-5-yl)pyridin-2-yl)amino)-3-(methyl-d3)-2-oxo-2,3-dihydro-1H-imidazo[4,5-c]pyridin-1-yl)-1-methylcyclopentyl)acetamide], the results for the IC50 in assay [1] and in assay [2] were not above 10 nM and more than 1000 nM, respectively.

In the case of `[2H]C([2H])([2H])n1c(=O)n([C@@H]2CC[C@](C)(NC(=O)C3CC3)C2)c2cc(Nc3ccc4nn(CC(C)(C)O)c(-c5cnn(C(F)(F)F)c5)c4n3)ncc21` [Example 123, N-((1S,3R)-3-(6-((2-(2-Hydroxy-2-methylpropyl)-3-(1-(trifluoromethyl)-1H-pyrazol-4-yl)-2H-pyrazolo[4,3-b]pyridin-5-yl)amino)-3-(methyl-d3)-2-oxo-2,3-dihydro-1H-imidazo[4,5-c]pyridin-1-yl)-1-methylcyclopentyl)cyclopropanecarboxamide], the IC50 is not above 10 nM in assay [1] and more than 1000 nM in assay [2].

For `[2H]C([2H])([2H])n1c(=O)n([C@@H]2CC[C@@H](NC(=O)OC)C2)c2cc(Nc3ccc4nn(CC(C)(C)O)c(-c5cnn(C(F)(F)F)c5)c4n3)ncc21` [Example 122, Methyl ((1R,3R)-3-(6-((2-(2-hydroxy-2-methylpropyl)-3-(1-(trifluoromethyl)-1H-pyrazol-4-yl)-2H-pyrazolo[4,3-b]pyridin-5-yl)amino)-3-(methyl-d3)-2-oxo-2,3-dihydro-1H-imidazo[4,5-c]pyridin-1-yl)cyclopentyl)carbamate], the IC50 in assay [1] was not above 10 nM; in assay [2] it was more than 1000 nM.

Take `[2H]C([2H])([2H])n1c(=O)n([C@@H]2CC[C@]([2H])(NC(=O)OC)C2)c2cc(Nc3cc(-c4cnccc4C(F)(F)F)c4nc(C)c(-c5cnn(C(F)F)c5)n4n3)ncc21` [Example 160, Methyl ((1S,3R)-3-(6-((3-(1-(difluoromethyl)-1H-pyrazol-4-yl)-2-methyl-8-(4-(trifluoromethyl)pyridin-3-yl)imidazo[1,2-b]pyridazin-6-yl)amino)-3-(methyl-d3)-2-oxo-2,3-dihydro-1H-imidazo[4,5-c]pyridin-1-yl)cyclopentyl-1-d)carbamate]: the IC50 was not above 10 nM in assay [1] and more than 1000 nM in assay [2].

With `[2H]C([2H])([2H])n1c(=O)n([C@@H]2CC[C@@]([2H])(NC(=O)OC)C2)c2cc(Nc3cc(C4CCOCC4)cc(-c4ncc(C(C)(C)O)s4)n3)ncc21` [Example 162, Methyl ((1R,3R)-3-(6-((6-(5-(2-hydroxypropan-2-yl)thiazol-2-yl)-4-(tetrahydro-2H-pyran-4-yl)pyridin-2-yl)amino)-3-(methyl-d3)-2-oxo-2,3-dihydro-1H-imidazo[4,5-c]pyridin-1-yl)cyclopentyl-1-d)carbamate], the IC50 in assay [1] was not above 10 nM; in assay [2], more than 1000 nM.

(Values after patent publication US20240317744A1, “Bicyclic Ureas As Kinase Inhibitors” (Incyte Corporation, priority 2023, published 2024).)
